Each structure is given as a SMILES string.

Our source for the IC50 values is patent publication EP4477653A1 (Perha Pharmaceuticals, priority 2023, dated 2024).

The target of this test is T1, human recombinant A3AR (expressed in HEK-293 cells) (Homo sapiens, UniProt P0DMS8).
T1 construct: host or cells: HEK-293 cells
T1 sequence (P0DMS8 1-318): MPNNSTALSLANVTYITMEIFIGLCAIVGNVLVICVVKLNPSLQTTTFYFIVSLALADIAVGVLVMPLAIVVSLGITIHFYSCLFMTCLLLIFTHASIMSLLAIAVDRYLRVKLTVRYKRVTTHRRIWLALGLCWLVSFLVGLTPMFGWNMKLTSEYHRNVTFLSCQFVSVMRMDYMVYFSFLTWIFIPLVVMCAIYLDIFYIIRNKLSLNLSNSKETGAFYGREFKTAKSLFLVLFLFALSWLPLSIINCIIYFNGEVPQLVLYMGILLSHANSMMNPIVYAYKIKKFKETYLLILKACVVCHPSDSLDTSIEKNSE
Nature of the test: Adenosine receptors antagonism assay (Eurofins), [125I]-AB-MECA radioligand competition. In kind it is binding. The note with it: [125I]-AB-MECA 0.15 nM, r.t., 120 min; IC50 from dose-response curves; read-out: Potency Class A3AR. In general terms: Loss of bound radioactivity is the signal in a displacement assay; it reports binding, not function.
With `CCC(CC)Nc1cc(N2CCc3ccccc3C2)c2nnc(C(C)C)n2n1` [compound 80, 8-(3,4-dihydro-1H-isoquinolin-2-yl)-N-(1-ethylpropyl)-3-isopropyl-[1,2,4]triazolo[4,3-b]pyridazin-6-amine], the IC50 is 0.001 to 0.01 µM.
Next, `CC(C)c1nnc2c(NCc3ccc(Br)cc3)cc(N[C@H](CO)[C@@H](C)O)nn12` [compound 106, (2R,3R)-2-[[8-[(4-bromophenyl)methylamino]-3-isopropyl-[1,2,4]triazolo[4,3-b]pyridazin-6-yl]amino]butane-1,3-diol]: 0.1 to 1 µM; `CCC(CC)Nc1cc(NC(=O)Cc2ccccc2)c2nnc(C(C)C)n2n1` [compound 98, N-[6-(1-ethylpropylamino)-3-isopropyl-[1,2,4]triazolo[4,3-b]pyridazin-8-yl]-2-phenyl-acetamide]: below 0.001 µM.
Next, `CCC(CC)Nc1cc(Nc2cccc(OC)n2)c2nnc(C3CC3)n2n1` [compound 183, 3-cyclopropyl-N8-(6-methoxypyridin-2-yl)-N6-(pentan-3-yl)-[1,2,4]triazolo[4,3-b]pyridazine-6,8-diamine]: below 0.001 µM; `CCOC(=O)CCNc1cc(NCc2ccccc2)c2nnc(C(C)C)n2n1` [compound 29, ethyl 3-[[8-(benzylamino)-3-isopropyl-[1,2,4]triazolo[4,3-b]pyridazin-6-yl]amino]propanoate]: 0.01 to 0.1 µM; `CCC(CC)Nc1cc(NCc2ccccn2)c2nnc(C3CCCCC3)n2n1` [compound 65, 3-cyclohexyl-N6-(1-ethylpropyl)-N8-(2-pyridylmethyl)-[1,2,4]triazolo[4,3-b]pyridazine-6,8-diamine]: 0.1 to 1 µM.
In the case of `c1ccc(CNc2cc(NCc3ccoc3)nn3c(C4CC4)nnc23)nc1` [compound 209, 3-cyclopropyl-N6-(furan-3-ylmethyl)-N8-(pyridin-2-ylmethyl)-[1,2,4]triazolo[4,3-b]pyridazine-6,8-diamine], the IC50 is 0.001 to 0.01 µM.
Next, `c1ccc(CNc2cc(NC3CCC3)nn3c(C4CC4)nnc23)nc1` [compound 198, N6-cyclobutyl-3-cyclopropyl-N8-(pyridin-2-ylmethyl)-[1,2,4]triazolo[4,3-b]pyridazine-6,8-diamine]: 0.001 to 0.01 µM; `c1ccc(CNc2cc(NCc3cccs3)nn3c(C4CC4)nnc23)nc1` [compound 210, 3-cyclopropyl-N8-(pyridin-2-ylmethyl)-N6-(thiophen-2-ylmethyl)-[1,2,4]triazolo[4,3-b]pyridazine-6,8-diamine]: 0.001 to 0.01 µM.
On to `c1ccc(CNc2cc(NC3CC3)nn3c(C4CC4)nnc23)nc1` [compound 197, N6,3-dicyclopropyl-N8-(pyridin-2-ylmethyl)-[1,2,4]triazolo[4,3-b]pyridazine-6,8-diamine], for which the IC50 was 0.01 to 0.1 µM.
Regarding `COC(=O)CCNc1cc(NCc2ccccc2)c2nnc(C(C)C)n2n1` [compound 28, methyl 3-[[8-(benzylamino)-3-isopropyl-[1,2,4]triazolo[4,3-b]pyridazin-6-yl]amino]propanoate], the IC50 lay within 0.01 to 0.1 µM.
In the case of `CCC(CC)CNc1cc(NCCc2ccccn2)c2nnc(C(C)C)n2n1` [compound 164, N6-(2-ethylbutyl)-3-isopropyl-N8-[2-(2-pyridyl)ethyl]-[1,2,4]triazolo[4,3-b]pyridazine-6,8-diamine], the IC50 is below 0.001 µM.
Next, `CCC(CC)Nc1cc(NCc2ccc(O)cc2)c2nnc(C(C)C)n2n1` [compound 42, 4-[[[6-(1-ethylpropylamino)-3-isopropyl-[1,2,4]triazolo[4,3-b]pyridazin-8-yl]amino]methyl]phenol]: 0.001 to 0.01 µM.
Then `c1ccc(CNc2cc(NC3CC4(CCC4)C3)nn3c(C4CC4)nnc23)nc1` [compound 205, 3-cyclopropyl-N8-(pyridin-2-ylmethyl)-N6-(spiro[3.3]heptan-2-yl)-[1,2,4]triazolo[4,3-b]pyridazine-6,8-diamine], with 0.001 to 0.01 µM; and `CC(C)c1nnc2c(NCc3ccccc3)cc(NCCCCCO)nn12` [compound 15, 5-[[8-(benzylamino)-3-isopropyl-[1,2,4]triazolo[4,3-b]pyridazin-6-yl]amino]pentan-1-ol], with 0.1 to 1 µM.
For the molecule `CC[C@H](CO)Nc1cc(NCc2ccc(N)cc2)c2nnc(C(C)C)n2n1` [compound 74, (2R)-2-[[8-[(4-aminophenyl)methylamino]-3-isopropyl-[1,2,4]triazolo[4,3-b]pyridazin-6-yl]amino]butan-1-ol], the IC50 lay within 0.01 to 0.1 µM.
Then `CC(C)c1nnc2c(NCc3ccccc3)cc(NCCOCCOCCN)nn12` [compound 8, N6-[2-[2-(2-aminoethoxy)ethoxy]ethyl]-N8-benzyl-3-isopropyl-[1,2,4]triazolo[4,3-b]pyridazine-6,8-diamine], with 0.1 to 1 µM; and `COCCCNc1cc(NCc2ccccc2)c2nnc(C(C)C)n2n1` [compound 10, N8-benzyl-3-isopropyl-N6-(3-methoxypropyl)-[1,2,4]triazolo[4,3-b]pyridazine-6,8-diamine], with 0.01 to 0.1 µM; and `CCC(CC)Nc1cc(Nc2ccnnc2)c2nnc(C(C)C)n2n1` [compound 149, 3-isopropyl-N6-(pentan-3-yl)-N8-(pyridazin-4-yl)-[1,2,4]triazolo[4,3-b]pyridazine-6,8-diamine], with 0.001 to 0.01 µM.
Next, `CC(=O)NCCCNc1cc(NCc2ccccc2)c2nnc(C(C)C)n2n1` [compound 24, N-[3-[[8-(benzylamino)-3-isopropyl-[1,2,4]triazolo[4,3-b]pyridazin-6-yl]amino]propyl]acetamide]: 0.1 to 1 µM; `CCC(CC)Nc1cc(NCCCc2ccccc2)c2nnc(C(C)C)n2n1` [compound 170, N6-(1-ethylpropyl)-3-isopropyl-N8-(3-phenylpropyl)-[1,2,4]triazolo[4,3-b]pyridazine-6,8-diamine]: 0.001 to 0.01 µM; `CCC(CC)Nc1cc(NCc2cccc(O)c2)c2nnc(C(C)C)n2n1` [compound 41, 3-[[[6-(1-ethylpropylamino)-3-isopropyl-[1,2,4]triazolo[4,3-b]pyridazin-8-yl]amino]methyl]phenol]: 0.001 to 0.01 µM.
Then `CC(C)c1nnc2c(NCc3ccccc3)cc(N[C@H](CO)[C@@H](C)O)nn12` (stereo in doubt) [compound 5, (2R,3R)-2-[[8-(benzylamino)-3-isopropyl-[1,2,4]triazolo[4,3-b]pyridazin-6-yl]amino]butane-1,3-diol], with 0.1 to 1 µM; and `c1ccc(CNc2cc(N[C@@H]3CCCOC3)nn3c(C4CC4)nnc23)nc1` [compound 214, (R)-3-cyclopropyl-N8-(pyridin-2-ylmethyl)-N6-(tetrahydro-2H-pyran-3-yl)-[1,2,4]triazolo[4,3-b]pyridazine-6,8-diamine], with 0.1 to 1 µM; and `CCC(CC)Nc1cc(NCc2cccnc2)c2nnc(C(C)C)n2n1` [compound 50, N6-(1-ethylpropyl)-3-isopropyl-N8-(3-pyridylmethyl)-[1,2,4]triazolo[4,3-b]pyridazine-6,8-diamine], with 0.001 to 0.01 µM.
On to `CCC(CC)Nc1cc(NC(CC)CC)c2nnc(C(C)C)n2n1` [compound 114, N6,N8-bis(1-ethylpropyl)-3-isopropyl-[1,2,4]triazolo[4,3-b]pyridazine-6,8-diamine], for which the IC50 was in the range of 0.001 to 0.01 µM.
